Laboratory results: patent US20210300940A1 (Merck Patent GmbH, priority 2018, published 2021)

What was measured:
TLR8 = molecular target: T1, TLR8 (Homo sapiens, UniProt Q9NR97); assay: HEK/293 TLR8 Cell Assay; assay type: cell-based; settings: HEK cells, R848 agonist 30 uM final concentration, Steady-Glo readout; read-out: TLR8 potency
T1 construct: expressed in transfected cells; host or cells: HEK/293 reporter cells (NF-kB luciferase)
T1 sequence (Q9NR97 27-1041): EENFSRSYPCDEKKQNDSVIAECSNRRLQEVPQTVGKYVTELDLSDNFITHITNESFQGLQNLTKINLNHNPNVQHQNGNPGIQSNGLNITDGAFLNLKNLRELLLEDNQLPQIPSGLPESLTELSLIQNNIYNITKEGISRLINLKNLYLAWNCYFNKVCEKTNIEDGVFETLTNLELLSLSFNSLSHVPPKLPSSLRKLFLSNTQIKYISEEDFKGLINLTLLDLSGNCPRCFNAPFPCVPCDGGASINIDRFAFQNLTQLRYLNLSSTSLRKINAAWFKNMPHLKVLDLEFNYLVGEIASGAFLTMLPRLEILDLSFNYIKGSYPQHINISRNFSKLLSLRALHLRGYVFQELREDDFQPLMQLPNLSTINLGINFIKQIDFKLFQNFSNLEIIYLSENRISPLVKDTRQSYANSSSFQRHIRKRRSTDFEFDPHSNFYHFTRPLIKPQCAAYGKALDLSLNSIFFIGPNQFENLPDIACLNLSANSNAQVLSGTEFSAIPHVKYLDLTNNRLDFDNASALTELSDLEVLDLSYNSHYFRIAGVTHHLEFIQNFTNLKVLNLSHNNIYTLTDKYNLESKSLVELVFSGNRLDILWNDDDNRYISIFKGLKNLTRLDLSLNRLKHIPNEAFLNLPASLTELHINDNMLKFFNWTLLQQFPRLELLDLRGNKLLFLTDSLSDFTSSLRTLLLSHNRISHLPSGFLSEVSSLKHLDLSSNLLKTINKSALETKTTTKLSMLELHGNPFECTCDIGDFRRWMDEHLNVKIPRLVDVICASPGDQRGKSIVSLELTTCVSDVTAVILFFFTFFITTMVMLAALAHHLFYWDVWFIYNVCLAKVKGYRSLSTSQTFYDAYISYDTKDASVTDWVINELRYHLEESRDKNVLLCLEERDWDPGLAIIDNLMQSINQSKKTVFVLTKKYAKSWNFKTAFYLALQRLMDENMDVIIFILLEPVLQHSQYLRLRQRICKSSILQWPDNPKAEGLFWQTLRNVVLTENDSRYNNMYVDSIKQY
Experimental: (§1) Example 390: HEK/293 TLR8 Cell Assay Into 384 CulturePlates (Corning 3765) was placed 5000 c/w of […] in 30 uL DMEM without Phenol red (gibco #31053-028) and 10% heat inactivated fetal bovine serum, 1% penicillin-streptomycin, and 2 mM L-Glutamine. The cells were incubated for 24 h at 37° C., 10% carbon dioxide and 90% relative humidity. 3 uL of controls, standards, and compounds were dispensed into wells, incubated for 30 min then 3 uL of R848 agonist (30 uM final concentration) was added in 20 mM Hepes. After incubation for 5 hours, they were allowed to stand at room temperature for 15 min. To this was added 10 uL of Steady-Glo substrate reagent and shake assay plate for 5 min at 1500 rpm. The assay plate was allowed to sit for 30 min at room temperature and then the plate was read on EnVision.

TLR7 = molecular target: T2, TLR7 (Homo sapiens, UniProt Q9NYK1); assay: HEK/293 TLR7 Cell Assay; assay type: cell-based; settings: TLR7/NFKb HEK cells, R848 agonist 10 uM final concentration, Steady-Glo readout; read-out: TLR7 potency
T2 construct: expressed in transfected cells; host or cells: HEK/293 cells carrying TLR7 and an NF-kB luciferase reporter
T2 sequence (Q9NYK1 27-1049): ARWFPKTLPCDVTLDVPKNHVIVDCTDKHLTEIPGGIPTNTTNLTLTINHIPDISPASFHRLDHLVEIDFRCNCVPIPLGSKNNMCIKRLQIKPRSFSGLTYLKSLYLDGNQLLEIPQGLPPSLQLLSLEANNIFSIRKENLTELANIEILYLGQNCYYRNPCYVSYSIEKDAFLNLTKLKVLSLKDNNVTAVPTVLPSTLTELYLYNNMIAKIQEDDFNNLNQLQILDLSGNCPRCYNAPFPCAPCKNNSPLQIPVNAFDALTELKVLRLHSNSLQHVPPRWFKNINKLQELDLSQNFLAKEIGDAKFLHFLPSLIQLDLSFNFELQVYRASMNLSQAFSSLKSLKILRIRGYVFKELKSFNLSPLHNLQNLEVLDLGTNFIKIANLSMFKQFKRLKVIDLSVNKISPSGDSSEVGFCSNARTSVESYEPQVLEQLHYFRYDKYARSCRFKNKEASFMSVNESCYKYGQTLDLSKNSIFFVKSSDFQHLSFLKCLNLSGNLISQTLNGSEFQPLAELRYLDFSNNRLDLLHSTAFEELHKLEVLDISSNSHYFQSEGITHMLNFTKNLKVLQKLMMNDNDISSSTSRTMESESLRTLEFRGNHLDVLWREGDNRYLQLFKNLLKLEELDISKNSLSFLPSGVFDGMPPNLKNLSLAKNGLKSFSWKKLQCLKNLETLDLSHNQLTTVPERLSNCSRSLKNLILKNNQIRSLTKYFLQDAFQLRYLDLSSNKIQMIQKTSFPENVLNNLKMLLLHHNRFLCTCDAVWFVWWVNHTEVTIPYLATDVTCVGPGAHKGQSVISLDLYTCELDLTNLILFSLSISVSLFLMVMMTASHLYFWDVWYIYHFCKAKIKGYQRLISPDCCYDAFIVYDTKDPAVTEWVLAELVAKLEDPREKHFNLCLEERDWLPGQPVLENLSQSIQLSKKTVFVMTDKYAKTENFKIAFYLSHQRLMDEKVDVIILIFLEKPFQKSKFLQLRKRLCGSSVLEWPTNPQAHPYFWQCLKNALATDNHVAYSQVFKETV
Experimental: as §1, with “389:” for “390:”, “TLR7” for “TLR8”, “[…]” for “1%”, “(10” for “(30”

Row | SMILES | IC50 (TLR8) | IC50 (TLR7)
1 | N#Cc1ccc(N2C[C@@H](C(F)(F)F)O[C@@H](C(=O)N[C@H]3CNC[C@H]3F)C2)c2nccnc12 (single isomer, unassigned) [Example 303] | < 0.075 µM | < 0.075 µM
2 | N#Cc1ccc(N2C[C@@H](C(=O)N[C@H]3CNC[C@H]3F)O[C@@H](C(F)(F)F)C2)c2nccnc12 (single isomer, unassigned) [Example 304] | < 0.075 µM | < 0.075 µM
3 | N#Cc1ccc(N2C[C@@H](C(F)(F)F)O[C@@H](C(=O)NCC3(F)CCNCC3)C2)c2nccnc12 (single isomer, unassigned) [Example 305] | < 0.075 µM | < 0.075 µM
4 | N#Cc1ccc(N2C[C@@H](C(=O)NCC3(F)CCNCC3)O[C@@H](C(F)(F)F)C2)c2nccnc12 (single isomer, unassigned) [Example 306] | < 0.075 µM | < 0.075 µM
5 | N#Cc1ccc(N2C[C@@H](C(F)(F)F)O[C@@H](C(=O)NC[C@@]3(F)CCNC3)C2)c2nccnc12 (single isomer, unassigned) [Example 307] | < 0.075 µM | < 0.075 µM
6 | N#Cc1ccc(N2C[C@@H](C(=O)NC[C@@]3(F)CCNC3)O[C@@H](C(F)(F)F)C2)c2nccnc12 (single isomer, unassigned) [Example 308] | < 0.075 µM | < 0.075 µM
7 | N#Cc1ccc(N2C[C@@H](C(F)(F)F)O[C@@H](C(=O)NC[C@]3(F)CCNC3)C2)c2nccnc12 (single isomer, unassigned) [Example 309] | < 0.075 µM | < 0.075 µM
8 | N#Cc1ccc(N2C[C@@H](C(=O)NC[C@]3(F)CCNC3)O[C@@H](C(F)(F)F)C2)c2nccnc12 (single isomer, unassigned) [Example 310] | < 0.075 µM | < 0.075 µM
9 | N#Cc1ccc(N2C[C@@H](C(F)(F)F)O[C@@H](C(=O)N3C[C@@H](N)C4(CC4)C3)C2)c2nccnc12 (single isomer, unassigned) [Example 311] | < 0.075 µM | < 0.075 µM
10 | N#Cc1ccc(N2C[C@@H](C(=O)N3C[C@@H](N)C4(CC4)C3)O[C@@H](C(F)(F)F)C2)c2nccnc12 (single isomer, unassigned) [Example 312] | > 0.15 µM | < 0.075 µM
11 | N#Cc1ccc(N2C[C@@H](C(=O)NC[C@]3(F)CCNC3)O[C@@H](C(F)(F)F)C2)c2cccnc12 (single isomer, unassigned) [Example 313] | < 0.075 µM | < 0.075 µM
12 | N#Cc1ccc(N2C[C@@H](C(F)(F)F)O[C@@H](C(=O)NC[C@]3(F)CCNC3)C2)c2cccnc12 (single isomer, unassigned) [Example 314] | > 0.15 µM | > 0.15 µM
13 | N#Cc1ncc(N2C[C@@H](C(F)(F)F)O[C@@H](C(=O)NCC3(F)CCNCC3)C2)c2cccnc12 (single isomer, unassigned) [Example 317] | 0.075 to 0.15 µM | < 0.075 µM
14 | N#Cc1ncc(N2C[C@@H](C(=O)NCC3(F)CCNCC3)O[C@@H](C(F)(F)F)C2)c2cccnc12 (single isomer, unassigned) [Example 318] | > 0.15 µM | > 0.15 µM
15 | N#Cc1ncc(N2C[C@@H](C(=O)NC[C@]3(F)CCNC3)O[C@@H](C(F)(F)F)C2)c2cccnc12 (single isomer, unassigned) [Example 319] | < 0.075 µM | < 0.075 µM
16 | N#Cc1ncc(N2C[C@@H](C(F)(F)F)O[C@@H](C(=O)NC[C@]3(F)CCNC3)C2)c2cccnc12 (single isomer, unassigned) [Example 320] | > 0.15 µM | > 0.15 µM
17 | C[C@@H]1CN(c2ccc(C#N)c3nccnc23)C[C@H](C(=O)N[C@H]2CCN(CC3CC3)C2)O1 (single isomer, unassigned) [Example 322] | < 0.075 µM | < 0.075 µM
18 | C[C@@H]1CN(c2ccc(C#N)c3nccnc23)C[C@H](C(=O)NC[C@H]2CN(C)CCO2)O1 (single isomer, unassigned) [Example 324] | < 0.075 µM | < 0.075 µM
19 | C[C@@H]1CN(c2ccc(C#N)c3nccnc23)C[C@H](C(=O)NC[C@@H]2CN(C)CCO2)O1 (single isomer, unassigned) [Example 325] | < 0.075 µM | < 0.075 µM
20 | COC[C@H](O)CNC(=O)[C@H]1CN(c2ccc(C#N)c3nccnc23)C[C@@H](C)O1 (single isomer, unassigned) [Example 326] | < 0.075 µM | 0.075 to 0.15 µM
21 | COC[C@@H](O)CNC(=O)[C@H]1CN(c2ccc(C#N)c3nccnc23)C[C@@H](C)O1 (single isomer, unassigned) [Example 327] | < 0.075 µM | < 0.075 µM
22 | C[C@@H]1CN(c2cnc(C#N)c3ncccc23)C[C@H](CNC(=O)[C@@]2(F)CCN(C)C2)O1 (single isomer, unassigned) [Example 334] | < 0.075 µM | > 0.15 µM
23 | C[C@@H]1CN(c2cnc(C#N)c3ncccc23)C[C@H](CNC(=O)[C@]2(F)CCN(C)C2)O1 (single isomer, unassigned) [Example 335] | < 0.075 µM | 0.075 to 0.15 µM
24 | C[C@@H]1CN(c2cnc(C#N)c3ncccc23)C[C@H](CNC(=O)[C@@]2(F)CCNC2)O1 (single isomer, unassigned) [Example 336] | < 0.075 µM | < 0.075 µM
25 | C[C@@H]1CN(c2cnc(C#N)c3ncccc23)C[C@H](CNC(=O)[C@]2(F)CCNC2)O1 (single isomer, unassigned) [Example 337] | < 0.075 µM | < 0.075 µM
26 | C[C@@H]1CN(c2cnc(C#N)c3ncccc23)C[C@H](CNC(=O)[C@@]2(F)CCCNC2)O1 (single isomer, unassigned) [Example 338] | < 0.075 µM | < 0.075 µM
